# B1: PRL: 25 kDa hormone produced by the anterior pituitary (protein, UniProt P01236 29-227, looked up)
# Prolactin: LPICPGGAARCQVTLRDLFDRAVVLSHYIHNLSSEMFSEFDKRYTHGRGFITKAINSCHTSSLATPEDKEQAQQMNQKDFLSLIVSILRSWNEPLYHLVTEVRGMQEAPEAILSKAVEIEEQTKRLLEGMELIVSQVHPETKENEIYPVWSGLPSLQMADEESRLSAYYNLLHCLRRDSHKIDNYLKLLKCRIIHNNNC
# Key:
# [1] = test system: MDA-MB-468 breast cancer cells; assay: PRL-induced invasion of breast cancer cells, Boyden chambers; assay type: cell-based; conditions: 1 μM
# Description: (§1) FIG. 1A. Bar graph showing inhibition of PRL-induced invasion of breast cancer cells by SMI-1 and SMI-6; FIG. 1B. Bar graph showing only minimal cytotoxicity at indicated concentrations.
# (§2) Both SMI-1 and SMI-6 at 1 μM concentrations abrogated PRL-induced invasion of MDA-MB-468 breast cancer cells, using Boyden chambers (FIG. 1A).
# [2] = test system: MDA-MB-468 breast cancer cells; assay: LDH cytotoxicity assay; assay type: cell-based; conditions: especially at 10-fold higher doses
# Description: as §1, §2
# Jurkat human lymphocytes = assay: Autocrine PRL-dependent BrdU uptake (cell proliferation) by flow cytometry; assay type: cell-based; conditions: for cell proliferation (BrdU uptake) driven by autocrine PRL: 1 μM SMI 24 hrs in 2% charcoal-stripped serum, then 1 nM PRL 24 hrs
# Description: FIG. 2. Bar graph showing suppression of autocrine PRL-dependent BrdU uptake in Jurkat lymphocytes by […] of each SMI, as determined by flow cytometry; the top panel indicates percent of live cells.
# To examine whether the SMIs can suppress cell proliferation that is driven by autocrine PRL, Jurkat human lymphocytes were utilized, which produce large amounts of autocrine PRL. Autocrine PRL in lymphocytes is well known to promote cell proliferation. The cells were incubated for 24 hrs in 2% charcoal-stripped serum (which is devoid on exogenous lactogenic hormones) with 1 μM of SMI-1 or SMI-6, and then with 1 nM PRL for 24 hrs. BrdU uptake was analyzed by flow cytometry.
# [3] = test system: postoperative thermal pain; assay: Thermal nociception (heat hyperalgesia, paw withdrawal latency) after hind paw surgery; assay type: in vivo; conditions: female mice
# Description: FIG. 3. […] Female mice were operated on the right hind paw. One day after surgery, 5 μg SMI-6 was applied either peripherally or centrally/spinally (5 μg or 25 μg) and mice were subjected to thermal nociception or mechanical allodynia (increased sensitization to tactile stimuli). […] SMI-6 at the 25 μg dose was effective in alleviating thermal pain by as much as 75%.
# [4] = test system: postoperative mechanical pain; assay: Mechanical allodynia (anesthesiometer, withdrawal threshold) after hind paw surgery; assay type: in vivo; conditions: female mice, one day after surgery; 5 μg peripherally, 5 μg or 25 μg spinally
# Description: FIG. 4. […] BL—baseline: POP—postoperative pain; SMI-6 was applied either peripherally ([…]), or spinally ([…]); each value is a mean±SME of 6 mice/treatment. Female mice were operated on the right hind paw. One day after surgery, 5 μg SMI-6 was applied either peripherally or centrally/spinally (5 μg or 25 μg) and mice were subjected to thermal nociception or mechanical allodynia (increased sensitization to tactile stimuli). […] SMI-6 at the 25 μg dose was effective in alleviating thermal pain by as much as 75%. For evaluating allodynia, an anesthesiometer was used, which applied a constant ramp of increasing mechanical pressure to the injured paw. […] was measured in grams.
Molecule,PRL-induced invasion of MDA-MB-468 breast cancer cells [1],toxicity in LDH cytotoxicity assay [2],cell proliferation (BrdU uptake) driven by autocrine PRL (Jurkat human lymphocytes),alleviation of thermal pain ([3]; 25 μg dose) [%],"alleviation of thermal pain (leg withdrawal latency), dose dependence ([3]; one day after surgery, 5 μg peripherally, 5 μg or 25 μg spinally)","abrogation of mechanical pain (allodynia, withdrawal threshold) [4]",effect of added PRL on BrdU uptake (Jurkat human lymphocytes; 1 nM PRL for 24 hrs)
CCN(CC)c1ccc(/C=N/NC(=O)c2c(Cl)cnn2C)c(O)c1 [SMI-6],abrogated,minimal toxicity,completely blocked,≤ 75,dose-dependent alleviation,equally as effective,
Cn1nc(Nc2ccc(Cl)cc2O)c(N)nc1=O [SMI-1],abrogated,minimal toxicity,completely blocked,,,,
B1,,,,,,,no effect

# From patent US11834423B2, “Small molecule prolactin receptor inhibitors, pharmaceutical compositions and treatment methods using such inhibitors” (University of Cincinnati, priority 2016, dated 2023)
